Test results reported in patent publication US7632972B2, “Compounds and methods for treatment of cancer and modulation of programmed cell death for melanoma and other cancer cells” (The Board of Trustees of the University of Illionis, priority 2003, dated 2009).

Columns and labels:
Format in all cases: cell-based, human
HOP-92 = experiment: NCI 60 cell line screen (SRB), Non-Small Cell Lung Cancer
Description: (§1) The operation of this screen utilizes 60 different human tumor cell lines, representing leukemia, melanoma and cancers of the lung, colon, brain, ovary, breast, prostate, and kidney. The aim is to prioritize for further evaluation, synthetic compounds or natural product samples showing selective growth inhibition or cell killing of particular tumor cell lines. This screen is unique in that the complexity of a 60 cell line dose response produced by a given compound results in a biological response pattern which can be utilized in pattern recognition algorithms. Using these algorithms, it is possible to assign a putative mechanism of action to a test compound, or to determine that the response pattern is unique and not similar to that of any of the standard prototype compounds included in the NCl database (see DTP Overview tab). In addition, following characterization of various cellular molecular targets in the 60 cell lines, it may be possible to select compounds most likely to interact with a specific molecular target.
(§2) The human tumor cell lines of the cancer screening panel are grown in RPMI 1640 medium containing 5% fetal bovine serum and 2 mM L-glutamine. For a typical screening experiment, cells are inoculated into 96 well microtiter plates in 100 μL at plating densities ranging from 5,000 to 40,000 cells/well depending on the doubling time of individual cell lines. After cell inoculation, the microtiter plates are incubated at 37° C., 5% CO2, 95% air and 100% relative humidity for 24 h prior to addition of experimental drugs.
(§3) After 24 h, two plates of each cell line are fixed in situ with TCA, to represent a measurement of the cell population for each cell line at the time of drug addition (Tz). Experimental drugs are solubilized in dimethyl sulfoxide at 400-fold the desired final maximum test concentration and stored frozen prior to use. At the time of drug addition, an aliquot of frozen concentrate is thawed and diluted to twice the desired final maximum test concentration with complete medium containing 50 μg/ml gentamicin. Additional four, 10-fold or ½ log serial dilutions are made to provide a total of five drug concentrations plus control. Aliquots of 100 μl of these different drug dilutions are added to the appropriate microtiter wells already containing 100 μl of medium, resulting in the required final drug concentrations.
(§4) Following drug addition, the plates are incubated for an additional 48 h at 37° C., 5% CO2, 95% air, and 100% relative humidity. For adherent cells, the assay is terminated by the addition of cold TCA. Cells are fixed in situ by the gentle addition of 50 μl of cold 50% (w/v) TCA (final concentration, 10% TCA) and incubated for 60 minutes at 4° C. The supernatant is discarded, and the plates are washed five times with tap water and air dried. Sulforhodamine B (SRB) solution (100 μl) at 0.4% (w/v) in 1% acetic acid is added to each well, and plates are incubated for 10 minutes at room temperature. After staining, unbound dye is removed by washing five times with 1% acetic acid and the plates are air dried. Bound stain is subsequently solubilized with 10 mM trizma base, and the absorbance is read on an automated plate reader at a wavelength of 515 nm. For suspension cells, the methodology is the same except that the assay is terminated by fixing settled cells at the bottom of the wells by gently adding 50 μl of 80% TCA (final concentration, 16% TCA). Using the seven absorbance measurements [time zero, (Tz), control growth, (C), and test growth in the presence of drug at the five concentration levels (Ti)], the percentage growth is calculated at each of the drug concentrations levels. Percentage growth inhibition is calculated as: [(Ti−Tz)/(C−Tz)]×100 for concentrations for which Ti>/=Tz [(Ti−Tz)/Tz]×100 for concentrations for which Ti<Tz.
(§5) Three dose response parameters are calculated for each experimental agent. […]

A549/ATCC = experiment: as above
Description: as §1, §2, §3, §4, §5

EKVX = experiment: as above
Description: as §1, §2, §3, §4, §5

NCI-H522 = experiment: as above
Description: as §1, §2, §3, §4, §5

NCI-H460 = experiment: as above
Description: as §1, §2, §3, §4, §5

MDA-MB-435 = experiment: NCI 60 cell line screen (SRB), Breast Cancer
Description: as §1, §2, §3, §4, §5

HS 578T = experiment: NCI 60 cell line screen (SRB), Breast Cancer
Description: as §1, §2, §3, §4, §5

BT-549 = experiment: NCI 60 cell line screen (SRB), Breast Cancer
Description: as §1, §2, §3, §4, §5

MDA-MB-231/ATCC = experiment: NCI 60 cell line screen (SRB), Breast Cancer
Description: as §1, §2, §3, §4, §5

[1] = read-out: LC50 (the source's name)

## COc1cccc(CCNC(=O)CC(c2ccccc2)(c2ccccc2)c2ccccc2)c1 [Compound Z3]
HOP-92; HOP-92
  GI50: > 100 µM
  TGI: >1.00E−04
HOP-92; HOP-92, Log10 Concentration −4.0
  Percent Growth: 68%
HOP-92; HOP-92, Log10 Concentration −5.0
  Percent Growth: 70%
HOP-92; HOP-92, Log10 Concentration −6.0
  Percent Growth: 94%
HOP-92; HOP-92, Log10 Concentration −7.0
  Percent Growth: 94%
HOP-92; HOP-92, Log10 Concentration −8.0
  Percent Growth: 99%
HOP-92; HOP-92, read-out: LC50 (the source's name)
  CC50: > 100 µM
A549/ATCC
  GI50: 4.11 µM
  TGI: 9.65E−05
A549/ATCC; Log10 Concentration −5.0
  Percent Growth: 25%
A549/ATCC; Log10 Concentration −6.0
  Percent Growth: 89%
A549/ATCC; Log10 Concentration −7.0
  Percent Growth: 94%
A549/ATCC; Log10 Concentration −8.0
  Percent Growth: 102%
A549/ATCC; [1]
  CC50: > 100 µM
EKVX
  GI50: 22.7 µM
  TGI: >1.00E−04
EKVX; Log10 Concentration −4.0
  Percent Growth: 29%
EKVX; Log10 Concentration −5.0
  Percent Growth: 62%
EKVX; Log10 Concentration −6.0
  Percent Growth: 109%
EKVX; Log10 Concentration −7.0
  Percent Growth: 121%
EKVX; Log10 Concentration −8.0
  Percent Growth: 108%
EKVX; [1]
  CC50: > 100 µM
NCI-H522; NCI-H522
  TGI: 8.45E−05
NCI-H522; NCI-H522, Log10 Concentration −4.0
  Percent Growth: −1%
NCI-H522; NCI-H522, Log10 Concentration −5.0
  Percent Growth: 12%
NCI-H522; NCI-H522, Log10 Concentration −6.0
  Percent Growth: 58%
NCI-H522; NCI-H522, Log10 Concentration −7.0
  Percent Growth: 46%
NCI-H522; NCI-H522, Log10 Concentration −8.0
  Percent Growth: 67%
NCI-H522; NCI-H522, read-out: LC50 (the source's name)
  CC50: > 100 µM
NCI-H460; NCI-H460
  GI50: 10.5 µM
  TGI: >1.00E−04
NCI-H460; NCI-H460, Log10 Concentration −4.0
  Percent Growth: 18%
NCI-H460; NCI-H460, Log10 Concentration −5.0
  Percent Growth: 51%
NCI-H460; NCI-H460, Log10 Concentration −6.0
  Percent Growth: 90%
NCI-H460; NCI-H460, Log10 Concentration −7.0
  Percent Growth: 117%
NCI-H460; NCI-H460, Log10 Concentration −8.0
  Percent Growth: 97%
NCI-H460; NCI-H460, read-out: LC50 (the source's name)
  CC50: > 100 µM
MDA-MB-435; MDA-MB-435
  GI50: 6.5 µM
  TGI: >1.00E−04
MDA-MB-435; MDA-MB-435, Log10 Concentration −4.0
  Percent Growth: 28%
MDA-MB-435; MDA-MB-435, Log10 Concentration −5.0
  Percent Growth: 40%
MDA-MB-435; MDA-MB-435, Log10 Concentration −6.0
  Percent Growth: 91%
MDA-MB-435; MDA-MB-435, Log10 Concentration −7.0
  Percent Growth: 109%
MDA-MB-435; MDA-MB-435, Log10 Concentration −8.0
  Percent Growth: 92%
MDA-MB-435; MDA-MB-435, read-out: LC50 (the source's name)
  CC50: > 100 µM
HS 578T; MS 578T
  GI50: > 100 µM
  TGI: >1.00E−04
HS 578T; MS 578T, Log10 Concentration −4.0
  Percent Growth: 55%
HS 578T; MS 578T, Log10 Concentration −5.0
  Percent Growth: 85%
HS 578T; MS 578T, Log10 Concentration −6.0
  Percent Growth: 101%
HS 578T; MS 578T, Log10 Concentration −7.0
  Percent Growth: 126%
HS 578T; MS 578T, Log10 Concentration −8.0
  Percent Growth: 101%
HS 578T; [1]
  CC50: > 100 µM
BT-549; BT-549
  GI50: > 100 µM
  TGI: >1.00E−04
BT-549; BT-549, Log10 Concentration −4.0
  Percent Growth: 69%
BT-549; BT-549, Log10 Concentration −5.0
  Percent Growth: 81%
BT-549; BT-549, Log10 Concentration −6.0
  Percent Growth: 107%
BT-549; BT-549, Log10 Concentration −7.0
  Percent Growth: 126%
BT-549; BT-549, Log10 Concentration −8.0
  Percent Growth: 100%
BT-549; BT-549, read-out: LC50 (the source's name)
  CC50: > 100 µM
MDA-MB-231/ATCC
  GI50: > 100 µM
  TGI: >1.00E−04
MDA-MB-231/ATCC; Log10 Concentration −4.0
  Percent Growth: 147%
MDA-MB-231/ATCC; Log10 Concentration −5.0
  Percent Growth: 75%
MDA-MB-231/ATCC; Log10 Concentration −6.0
  Percent Growth: 59%
MDA-MB-231/ATCC; Log10 Concentration −7.0
  Percent Growth: 69%
MDA-MB-231/ATCC; Log10 Concentration −8.0
  Percent Growth: 68%
MDA-MB-231/ATCC; [1]
  CC50: > 100 µM
